Assay results from patent US8916586B2, “Anti-angiogenic compound” (University College Dublin—National University of Ireland, …, priority 2011, dated 2014).
Entries after “also recorded” stand apart in the source; their conditions may differ.

Experiments:
[1] = test system: dermal-derived normal human microvascular endothelial cells (HMVEC-d); assay: In vitro HMVEC-d tube formation assay on Matrigel; assay type: cell-based; conditions: 100 nM, 20 hr
Procedure: (§1) HMVEC-d were purchased from Clonetics, San Diego, Calif., USA. Cells were maintained in complete Endothelial Cell Medium (Clonetics® EGM®-2-MV BulletKit®) containing 500 ml of Endothelial Cell Basal Medium-2 and supplemented with hEGF, 0.5 ml; Hydrocortisone, 0.2 ml; GA-1000, 0.5 ml; FBS, 25 ml; VEGF, 0.5 ml; hFGF-B, 2.0 ml; R3-IGF-1, 0.5 ml; Ascorbic Acid, 0.5 ml in a 37° C. humidified atmosphere of 5% CO2/95% air. HMVEC-d were used for experiments between passages 4-8.
Matrigel (Becton Dickenson) basement membrane matrix was used to examine HMVEC-d tube formation. Matrigel (50 μl) was plated in 96 well culture plate wells after thawing on ice and allowed to polymerise at 37° C. 5% CO2 humidified atmosphere for 1 hr. HMVEC-d were removed from culture, trypsinised, and resuspended in full strength EGM growth medium. Cells were seeded at a density of 50×10^4 cells/cm^2 and incubated for 20 hr at 37° C. 5% CO2 humidified atmosphere. Endothelial cell tubule formation was assessed using phase contrast microscopy and photographed. A connecting branch between two discrete ECs was counted as one tube. The tube analysis was determined from 3 sequential fields (magnification×10) focusing on the surface of the matrigel.

[2] = test system: hyaloid vasculature in zebrafish; assay: Zebrafish developmental angiogenesis assay: number of primary branches of hyaloid vasculature on dissected lens; assay type: in vivo; conditions: for dose-dependence of inhibition of hyaloid vasculature development: increasing concentrations between 1-10 μM, 5 dpf; for inhibition of intraocular angiogenesis (hyaloid vessels) in library screen: 5 day old larvae
Source text: We have used the zebrafish model as an in vivo screen for chemical libraries as the small size and transparency of the zebra fish enables high-content screens in multi-well plate formats (MacRae and Peterson, 2003; Pichler et al., 2003; Peterson et al., 2004; den Hertog, 2005; Zon and Peterson, 2005). […] To identify anti-angiogenic drugs we used a transgenic line of zebrafish that expresses a fluorescent reporter (EGFP) specifically in vasculature (Tg(fli1:efgp)). This line was obtained from the Zebrafish International Resource Center. Our assay involved screening the effect of drugs in the library on the development of blood vessels in zebrafish. Specifically, we looked at the integrity of vessels developing in the eye (hyaloid vessels attached to the lens) and in the trunk.
All experiments were carried out under ethical approval granted by the UCD animal research ethics committee. Tg(fli1:EGFP) zebrafish were maintained according to standard procedures on a 14 hr light/10 hr dark cycle at 28° C. Referring to the schematic of FIG. 1A, embryos were obtained by natural spawning and developmental stages established by time and morphological criteria. A chemical library containing numerous compounds was screened (FIG. 1A). In this specific example, the chemical library contained 5000 compounds of the DIVERSet™ collection from ChemBridge Corp., USA. At 24 hours post fertilisation (hpf), 5 embryos per well were placed in […] of Embryo Medium/1% DMSO and incubated with drug at 28° C. on a 14 h light/10 h dark cycle. Larvae were euthanised, and fixed in 4% PFA at 4° C. overnight before analysis. (FIG. 1A).
Right lenses were dissected from the larvae and transferred to depression slides for observation under epi-fluorescence in the Olympus SZX16 and to cover-slip bottom Petri-dishes for confocal microscopy in a Zeiss UV510 META LSM system (20× and 40× inverted objectives). To achieve appropriate orientation, lenses were embedded in 10% methyl-cellulose and manipulated with a tungsten needle (0.5 mm diameter). Patterning of the hyaloid vessels on the treated larval lenses was compared to DMSO controls and the archetypal pattern previously described (Alvarez et al., 2007; Alvarez et al., 2009). The number of primary vessels radiating from the back of the lens (3-4 main branches at 5 dpf in controls and previously described), was counted and the average number was graphed for each drug. From screens of ˜1600 small molecules, four “hits” that inhibited the number of primary hyaloids vessels were identified (FIG. 1B).
To validate the “hits” from the library screen, dose-dependence experiments were conducted by screening the drugs in the assay described in Example 2 above but at a range of increasing concentrations between 1-10 μM. Larvae were maintained under the drug treatments at 28° C. on 14 hr light/10 hr dark cycle until 5 days post fertilisation (dpf), when they were euthanised and fixed in 4% PFA at 4° C. overnight before analysis. The average number of primary hyaloids branches was graphed for each concentration of drug. […] One of the lead compounds identified by the screen of chemical library was 11B which has the chemical name 2-[2-2-quinolinyl)vinyl]phenol and its structure shown below: […]

[3] = test system: dermal-derived normal human microvascular endothelial cells (HMVEC-d); assay: Crystal violet-based proliferation assay in HMVEC-d; assay type: cell-based; conditions: 100 nM (FIG. 13), 24 h
Procedure: as §1
The responses to different compound treatments were examined using a crystal violet-based proliferation assay to test the effects of the compounds on cell proliferation. HMVEC-d were seeded in 96-well plates in complete medium at a density of 25,000 cells/cm^2 and allowed to attach in a humidified atmosphere of 5% CO2, 95% air and at 37° C. Cells were treated with the compounds at different concentrations in replicates wells, and cell proliferation was evaluated after 24 h. At the specific time point medium was removed, cells were fixed with 1% glutaraldehyde and stained with a 0.1% crystal violet solution (Pro-lab diagnostics) for 30 min. The plates were then washed extensively in water and air dried. Cell-associated dye was extracted with a 1% solution of Triton X100 and the absorbance was determined at 550 nm using a plate reader (Multiskan Ascent, Lab Systems).

[4] = test system: VEGF secreted from explant cultures of human colorectal cancers; assay: VEGF secretion from human colorectal tumour explants (ELISA); assay type: cell-based; conditions: 72 hours
Procedure: (§2) Human colorectal tumour samples were taken directly from the pathology laboratory after surgery once adequate material was taken for diagnostic testing. The tumour samples were washed and stored in DMSO/tumour conditioning media (TCM). The samples were snap-frozen in liquid nitrogen and stored at −80° C. until compound testing was performed. Prior to compound testing, the tumours were thawed and incubated in fresh TCM for 24 hours. […] The TCM solutions were collected and stored at −20° C. and the remaining tumour explants were snap-frozen in liquid nitrogen and stored at −80° C. The protein content of each tumour sample was determined using the BCA protein assay. ELISA was used to determine the levels of VEGF, IL-8, MCP-1, GRO-α, IL-1β and IL-6. The secretion data were normalised according to the tumour sample's protein content.

[5] = test system: IL-1β secreted from explant cultures of human colorectal cancers; assay: IL-1β secretion from human colorectal tumour explants (ELISA); assay type: cell-based; conditions: 72 hours; for level of IL-1β secreted by human tumour explants: 1 μM and 10 μM tested, concentration not given at place; for level of IL-1b secreted by human tumour explants: 10 μM
Procedure: as §2

[6] = 5 μM, treated day 1-5, analysed 5 dpf
[7] = 10 μM, treated day 1-5, analysed 5 dpf
[8] = 1 μM and 10 μM tested, concentration not given at place

| SMILES | inhibition of HMVEC-d tubule formation [1] | number of primary branches of hyaloid vasculature ([2]; 4 μM, analysed 5 dpf) | number of primary branches of hyaloid vasculature [2, 6] | number of primary branches of hyaloid vasculature ([2]; 7.5 μM, analysed 5 dpf) | anti-angiogenic effect compared with Avastin, number of primary hyaloid branches ([2]; 10 μM) | number of primary branches of hyaloid vasculature [2, 7] | dose-dependence of inhibition of hyaloid vasculature development [2] | inhibition of intraocular angiogenesis (hyaloid vessels) in library screen [2] | effect on HMVEC-d proliferation [3] | level of VEGF secreted by human tumour explants [4, 8] | level of VEGF secreted by human tumour explants ([4]; 10 μM) | level of IL-1β secreted by human tumour explants [5] | level of IL-1b secreted by human tumour explants [5] | reduction of tubule formation compared to control [1] | level of VEGF secreted by human tumour explants ([4]; 1 μM) |
| --- | --- | --- | --- | --- | --- | --- | --- | --- | --- | --- | --- | --- | --- | --- | --- |
| Oc1ccccc1/C=C/c1ccc2ccccc2n1 [11B] | significantly inhibits | significant inhibition | significant inhibition; also recorded: significant reduction | significant inhibition | more effective anti-angiogenic effect than Avastin | significant inhibition; also recorded: significant reduction | dose-dependent and statistically significant manner; also recorded: dose-dependent inhibition | inhibit intraocular angiogenesis | no significant effect; also recorded: neither 11B nor 11F had a significant effect | significantly reduced | significantly reduces | significantly reduced | significantly reduces |  |  |
| COc1cc2c(C3CCCN3C)cnc(Cc3ccc4c(c3)OCO4)c2cc1OC (stereo not drawn) [11F, 1-(1,3-benzodioxol-5-ylmethyl)-6,7-dimethoxy-4-(1-methyl-2-pyrrolidinyl)isoquinoline] |  |  | significant inhibition |  |  | significant inhibition | dose-dependent and statistically significant manner | inhibit intraocular angiogenesis | no significant effect; also recorded: neither 11B nor 11F had a significant effect | significantly reduced | significantly reduced | significantly reduced | significantly reduced | 9% | significantly reduced |
